Measured values as given in ChEMBL document CHEMBL1641564, “In vitro evaluation of 5-arylidene-2-thioxo-4-thiazolidinones active as aldose reductase inhibitors” (Bioorg Med Chem Lett, 2011).

Experiments:
[1] = target: Aldo-keto reductase family 1 member B1 (Bos taurus, UniProt P16116); assay: Inhibition of bovine lens aldose reductase assessed as inhibition of […] oxidation by non-linear regression analysis
[2] = target: Aldo-keto reductase family 1 member B1 (Bos taurus) (UniProt P16116); assay: Inhibition of bovine lens aldose reductase assessed as inhibition of […] oxidation at 16 uM by non-linear regression analysis
[3] = target: T1, Aldo-keto reductase family 1 member B1 (Homo sapiens, UniProt P15121); assay: Inhibition of aldose reductase at 37 uM
[4] = target: T1, Aldo-keto reductase family 1 member B1; assay: Inhibition of aldose reductase
[5] = target: T1, Aldo-keto reductase family 1 member B1; assay: Inhibition of aldose reductase at 50 uM
[6] = target: Aldo-keto reductase family 1 member B1 (Bos taurus) (UniProt P16116); assay: Inhibition of bovine lens aldose reductase assessed as inhibition of […] oxidation at 11 uM by non-linear regression analysis
[7] = target: Aldo-keto reductase family 1 member B1 (Bos taurus) (UniProt P16116); assay: Inhibition of bovine lens aldose reductase assessed as inhibition of […] oxidation at 13 uM by non-linear regression analysis

| SMILES | IC50 [1] [nM] | IC50 [4] [nM] | also measured |
| --- | --- | --- | --- |
| O=C1NC(=S)S/C1=C\c1cccc2ccccc12 | 2270 | – | – |
| O=C1NC(=S)S/C1=C\c1ccc2ccccc2c1 | – | – | inhibition [2]: 40% |
| O=C1N=C(O)S/C1=C\c1ccc(Oc2ccccc2)cc1 | – | – | inhibition [3]: 41% |
| O=C(O)CN1C(=O)/C(=C/c2ccc(OCc3ccccc3)cc2)SC1=S | 190 | – | – |
| COc1cccc(/C=C2\SC(=O)NC2=O)c1 | – | 13300 | – |
| O=C1N=C(O)S/C1=C\c1ccc(OCc2ccccc2)cc1 | – | – | inhibition [5]: 10% |
| COc1cccc(/C=C2\SC(=O)N(CC(=O)O)C2=O)c1 | – | 480 | – |
| O=C(O)CN1C(=O)/C(=C/c2cccc(OCc3ccccc3)c2)SC1=S | 130 | – | – |
| O=C(O)CN1C(=O)S/C(=C\c2ccc(OCc3ccccc3)cc2)C1=O | – | 280 | – |
| O=C1NC(=O)/C(=C/c2ccc(-c3ccccc3)cc2)S1 | – | – | inhibition [5]: 20% |
| O=C(O)CN1C(=O)S/C(=C\c2cccc(Oc3ccccc3)c2)C1=O | – | 130 | – |
| COc1cccc(/C=C2\SC(=S)N(CC(=O)O)C2=O)c1 | 150 | – | – |
| O=C1NC(=S)S/C1=C\c1ccc(O)cc1 | 4550 | – | – |
| COc1cccc(/C=C2\SC(=S)NC2=O)c1 | 6240 | – | – |
| O=C(O)CN1C(=O)/C(=C/c2cccc(Oc3ccccc3)c2)SC1=S | 410 | – | – |
| O=C1NC(=S)S/C1=C\c1ccc(OCc2ccccc2)cc1 | – | – | inhibition [6]: 7% |
| O=C1NC(=S)S/C1=C\c1ccc(-c2ccccc2)cc1 | – | – | inhibition [7]: 28% |
| COc1ccc(/C=C2\SC(=S)NC2=O)cc1 | 5230 | – | – |

The next lines start with results.

| IC50 [1] [nM] | IC50 [4] [nM] | SMILES | also measured |
| --- | --- | --- | --- |
| 1100 | – | O=C1NC(=S)S/C1=C\c1ccc(Oc2ccccc2)cc1 | – |
| – | 6140 | O=C1NC(=O)/C(=C/c2cccc(Oc3ccccc3)c2)S1 | – |
| 110 | – | O=C(O)CN1C(=O)/C(=C/c2ccc(Oc3ccccc3)cc2)SC1=S | – |
| – | 8960 | O=C1NC(=O)/C(=C/c2ccc(O)cc2)S1 | – |
| 1080 | – | O=C1NC(=S)S/C1=C\c1cccc(OCc2ccccc2)c1 | – |
| – | 10700 | O=C1NC(=O)/C(=C/c2cccc3ccccc23)S1 | – |
| – | 820 | O=C(O)CN1C(=O)S/C(=C\c2ccc(Oc3ccccc3)cc2)C1=O | – |
| 2940 | – | O=C1NC(=S)S/C1=C\c1cccc(Oc2ccccc2)c1 | – |
| – | 40800 | COc1ccc(/C=C2\SC(=O)NC2=O)cc1 | – |
